Measured values reported in doi:10.1101/2021.04.29.441652v1 (biorxiv, 2021).

These compounds were tested against human σ2 receptor (TMEM97) (Homo sapiens, UniProt Q5BJF2) (assay: biochemical). Settings: read-out: % of control remaining.
Assay type: Expi293 membranes

Chain of human σ2 receptor (TMEM97) (Q5BJF2 whole entry): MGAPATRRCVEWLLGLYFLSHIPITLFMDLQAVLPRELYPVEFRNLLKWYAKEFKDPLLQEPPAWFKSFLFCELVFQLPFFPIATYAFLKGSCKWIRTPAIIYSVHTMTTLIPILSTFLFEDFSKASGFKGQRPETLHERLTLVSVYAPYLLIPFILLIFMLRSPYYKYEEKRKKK

Row | SMILES | remaining activity at 1 µM [%]
1 | FC(F)(F)c1ccnc([C@H]2CCN(C[C@@H]3C[C@H]3c3ccccc3)C2)n1 [ZINC000897616680] | 5.1
2 | O=C1CCCCN1C1CCN(C[C@H](O)C[C@]2(O)CCOC2)CC1 [ZINC000929842198] | 104
3 | CCCN(C)C[C@H]1CCN([C@H](C)C(=O)c2c[nH]c3ncccc23)C1 [ZINC000271284821] | 28.3
4 | C[C@@H]1CN(C(=O)Cc2cncnc2)C[C@H]1NC(=O)CCn1cccn1 [ZINC001071984909] | 89.9
5 | CC(C)(C(=O)N[C@@H]1CCCc2cc(N)ccc21)[C@H](N)c1ccccc1 [ZINC000417806012] | 96.2
6 | CCn1ncnc1CN1CCCN(C(=O)C[C@H]2CC(=O)NC2=O)CC1 [ZINC000989806749] | 118
7 | CC[C@@]1(NCC(=O)Nc2ccc(C)cc2Br)CCOC1 [ZINC000683045155] | 108
8 | CO[C@@H](CNC(=O)C(=O)N1C[C@@H]2C(=O)N(C)C(=O)[C@@H]2C1)CC(C)C [ZINC001119173847] | 95.8
9 | C[C@H]1C[C@H](N2CCCC2)CN1CC(=O)N(Cc1ccccc1)c1ccccc1 [ZINC000512182007] | 31.6
10 | Cc1cc(C)nc(NC[C@@H](O)CNC(=O)[C@@H]2CCc3c[nH]nc3C2)n1 [ZINC001105862991] | 76.1
11 | COc1ccnc(CN2CCC3(CC2)CCN(C(=O)C(C)C)C3)c1 [ZINC001040612984] | 100
12 | COc1ccc2ccccc2c1-c1cc(CN2CCN(C[C@@H](C)O)C[C@H]2C)on1 [ZINC000192810020] | 89
13 | N#Cc1sccc1N1CCN(CCCCCn2cccn2)CC1 [ZINC000595632104] | 45.7
14 | COc1ccc(C(=O)N2CC[C@H](N3CCCC3)[C@@H]2C)nc1Cl [ZINC000805335094] | 133
15 | COc1ccccc1C[C@@](C)(CO)NCc1ccc2c(c1)ncn2C [ZINC000631236280] | 92
16 | COc1ccc2c(c1)C[C@H](CN1CCCC[C@H]1CCC(=O)OC(C)(C)C)O2 [ZINC001195393353] | 54.5
17 | CN1CCO[C@@H](CN(Cc2cnc(-c3cnn(C)c3)nc2)CC2CC2)C1 [ZINC000369129048] | 120
18 | CN(C(=O)C[C@@H]1CSCCN1)[C@@H]1CCCN(c2cccnn2)C1 [ZINC000133744458] | 65.7
19 | CN1CCC(C)(CNC(=O)Nc2ccc(Br)nc2)CC1 [ZINC000272631760] | 91.2

Row | SMILES | remaining activity at 1 µM [%]
20 | COc1cccc2ncnc(N3CCN(CC4CCOCC4)CC3)c12 [ZINC000543048256] | 109
21 | C[C@H](N[C@@H](C)CN1CCN(C)CC1)c1ccc(-c2ccccc2)o1 [ZINC000155112667] | 33.8
22 | COc1ccc(C(=O)N[C@@H]2CN(C(=O)C3(C)CCC3)C[C@@H]2O)nn1 [ZINC000970553575] | 92.8
23 | O=C(NCCN1CCNC1=O)C(=O)NC[C@H]1CCc2ccccc21 [ZINC001119470858] | 107
24 | CN1CC[C@]2(CCN(C(=O)CN3C(=O)NC4(CCCC4)C3=O)C2)C1 [ZINC000366544782] | 110
25 | CC(=O)NCCN1CCC(NC(=O)c2c(Cl)n[nH]c2C)CC1 [ZINC001055479120] | 98.5
26 | CN(C)S(=O)(=O)CCC(=O)N[C@H]1[C@@H]2CN(Cc3ccon3)C[C@@H]21 [ZINC001115282185] | 109
27 | Cc1ccoc1CC(=O)N1C[C@H]2CCN(CC(=O)N(C)C)C[C@H]2C1 [ZINC001088099598] | 132
28 | COc1cc(Cl)c(C)cc1NC(=O)[C@H](C)N(C)Cc1sccc1C [ZINC000520440291] | 102
29 | C[C@@H]1OCC[C@]1(C)NC(=O)CCc1nc2c(O)nc(=O)n(C)c2[nH]1 [ZINC000345525893] | 90.8
30 | O=C([C@H]1CCOC1)N1CCOC2(C1)CN(C(=O)[C@@]1(F)CCOC1)C2 [ZINC000965338365] | 99.1
31 | CO[C@H](C)CS(=O)(=O)N1CCN(C(=O)C(=O)N2CCCC2)CC1 [ZINC000442921898] | 111
32 | CCc1cc(C(=O)NC[C@H]2CN(CCn3cncn3)CCCO2)no1 [ZINC001073859800] | 110
33 | CCNS(=O)(=O)CCNC(=O)C(=O)N[C@@H](C)C1=CCN(C)CC1 [ZINC001261177261] | 70.9
34 | CCc1nc2cc(CN[C@@H](C)CC(=O)N3CCCCCC3)ccc2n1C1CC1 [ZINC000574654702] | 48.4
35 | CCC(C)(C)N1CCN(c2cc(C(F)F)ncn2)CC1 [ZINC000894429059] | 33.6
36 | Cc1ccnc(CN[C@@H](C)CCNC(=O)c2ccn(C(C)C)c2C)n1 [ZINC001381212829] | 71.1
37 | c1ccc(-c2csc(CN3CCC4(C3)OCCO4)c2)cc1 [ZINC000093013680] | 89.6
38 | CN1CCN(c2ncc(CN3CCN(CC4CC4)CC3)cn2)CC1 [ZINC000130668661] | 68.6

Row | SMILES | remaining activity at 1 µM [%]
39 | CC(C)[C@H](C(=O)NC[C@H](C[C@@H](C)O)c1ccccc1)N1CCCCC1 [ZINC000159130997] | 108
40 | CN(C[C@@H](O)CN(C)c1ncc(F)cn1)C(=O)CCc1cnn[nH]1 [ZINC001125309519] | 88
41 | C[C@H](N[C@@H]1CCCc2c1[nH]c1ccccc21)[C@H]1CCCOC1 [ZINC000389015736] | 54.1
42 | Clc1ccccc1Cn1cc(CNc2nc3ccccc3[nH]2)cn1 [ZINC000683721842] | 99.8
43 | CCc1c(C(=O)N[C@@H](C)C2CCN(C)CC2)cnn1-c1ccccc1 [ZINC000603324806] | 65.5
44 | O=C(Cn1cc([N+](=O)[O-])ccc1=O)N1CC[C@H](N2CC[C@@H](O)C2)C1 [ZINC000588863575] | 134
45 | COC(=O)N1CCC[C@H](NC(=O)C(=O)N2CC[C@@](O)(C3CC3)C2)C1 [ZINC001323717111] | 95
46 | CCO[C@@H]1C[C@](CO)(NC[C@H](O)COC2CCOCC2)C1(C)C [ZINC000444807044] | 120
47 | CN1C(=O)[C@H]2CN(C(=O)C(=O)NC3CCC(F)(F)CC3)C[C@H]2C1=O [ZINC001261948364] | 90.8
48 | CCN(CC)[C@H]1CCN(Cc2ncc(Cl)cc2Cl)C1 [ZINC000182372239] | 34.6
49 | CN1CCC(C(=O)N2CCC[C@@H](c3nc4ccc(F)cc4o3)C2)CC1 [ZINC000370933962] | 98.9
50 | O=C(CN1CCC(c2nc3cc(Cl)ccc3o2)CC1)N1CCC1 [ZINC000298791523] | 89
51 | Cc1noc(C)c1CNC(=O)C(=O)N1CCN(C2CCCC2)CC1 [ZINC000283462313] | 98.5
52 | C[C@@H]1CN(C(=O)C2CN(C)CCN(C)C2)CC(C)(C)O1 [ZINC000906421824] | 127
53 | O=C(NC[C@H]1CCCN1)Nc1cc(F)cc(F)c1Br [ZINC000415549177] | 73.8
54 | Clc1ccccc1Cn1cc(CN2CCC[C@@H]2c2ccc[nH]2)cn1 [ZINC000676461131] | 63.8
55 | O=C([C@@H]1CCCN1c1ncccn1)N1CC[C@@H](N2CC[C@H](O)C2)C1 [ZINC000627254962] | 114
56 | Cc1ccccc1CN[C@H]1C[C@H](NC(=O)c2cn(C)c(=O)nc2O)C1 [ZINC001021041334] | 86.2
